According to patent US20250042881A1, “CCR6 RECEPTOR MODULATORS” (Idorsia Pharmaceuticals Ltd, priority 2021, published 2025):

What follows are compounds tested against T1, human CCR6 (Homo sapiens, UniProt P51684) (assay: FLIPR assay: inhibition of CCL20-induced calcium signal in HEK-293 cells expressing human CCR6). Details: engineered HEK-293 cells expressing human CCR6; agonist CCL20 10 nM; 30 min preincubation; Fluo-8-AM; mean values if determined several times.
T1 construct: expressed in transfected cells; host or cells: HEK-293
T1 sequence (P51684 1-374): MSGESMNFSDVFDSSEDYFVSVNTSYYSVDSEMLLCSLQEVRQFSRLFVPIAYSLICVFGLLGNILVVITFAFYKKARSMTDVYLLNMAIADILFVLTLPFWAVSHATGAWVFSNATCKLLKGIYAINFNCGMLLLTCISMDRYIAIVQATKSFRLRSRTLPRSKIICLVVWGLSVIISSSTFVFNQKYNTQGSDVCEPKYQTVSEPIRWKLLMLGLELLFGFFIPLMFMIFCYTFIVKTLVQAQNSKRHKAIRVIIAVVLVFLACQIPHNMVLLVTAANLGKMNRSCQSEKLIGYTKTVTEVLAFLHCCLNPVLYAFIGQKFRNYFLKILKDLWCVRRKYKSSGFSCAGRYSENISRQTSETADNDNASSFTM
Type: cell-based
Experimental: FLIPR assay: The bioactivity of compounds is tested in a fluorometric imaging plate reader (FLIPR: Molecular Devices) using engineered HEK-293 cells expressing the human CCR6 (GenBank: AY242126). Frozen cells are plated on Poly-L-Lysine precoated 384-well plates 2 days prior to bioassay in DMEM medium supplemented with 10% FCS and 1% Penicillin-Streptomycin. At the day of bioassay, cell supernatant is discarded and cells are dye loaded for 30 minutes at room temperature in the dark with Fluo-8-AM (Focus Biomolecules) in Hanks Balanced Salt Solution (Gibco), buffered with 20 mM Hepes at pH 6.75 and supplemented with 0.05% BSA. This buffer, but lacking the dye, is also used for washing and compound dilution steps (assay buffer). Cells are washed free of excess dye with a wash-station (Biotek), leaving 40 microliter of assay buffer at the end. Cells were incubated for 15 minutes at room temperature in the dark, before adding compounds. Stock solutions of test compounds are made up at a concentration of 10 mM in DMSO, and serially diluted first in DMSO and then transferred in assay buffer to concentrations required for inhibition dose response curves. After a 45 minute incubation period in assay buffer at room temperature, 10 microliters of each compound dilution are transferred from a compound plate to the plate containing the recombinant cells in the FLIPR instrument according to the manufacturer's instructions. After cells and compounds were preincubated for 30 minutes at room temperature in the dark, 10 microliter agonist CCL20 (Peprotech) at a final concentration of 10 nM is added, again using the FLIPR instrument. Changes in fluorescence are monitored before and after addition of the test compounds and agonist. Emission peak values above base level after CCL20 addition are exported after base line subtraction. The calculated IC50 values may fluctuate depending on the daily assay performance. Fluctuations of this kind are known to those skilled in the art. In the case where IC50 values have been determined several times for the same compound, mean values are given.
`CC(C)c1ccc([C@](O)(c2cncc(-c3nc(C(C)(C)O)n(C4CC4)n3)c2)C2(C)CN(C)C2)cc1` [Example 26, 2-(2-Cyclopropyl-5-{5-[(R)-(1,3-dimethyl-azetidin-3-yl)-hydroxy-(4-isopropyl-phenyl)-methyl]-pyridin-3-yl}-2H-[1,2,4]triazol-3-yl)-propan-2-ol] showed an IC50 of 46.4 nM.
Compound `CC(C)c1ccc([C@](O)(c2cncc(-c3nc([C@@](C)(O)C(F)(F)F)n(C4CC4)n3)c2)C2(C)CN(C)C2)cc1` [Example 9, (R)-2-(2-Cyclopropyl-5-{5-[(R)-(1,3-dimethyl-azetidin-3-yl)-hydroxy-(4-isopropyl-phenyl)-methyl]-pyridin-3-yl}-2H-[1,2,4]triazol-3-yl)-1,1,1-trifluoro-propan-2-ol] has an IC50 of 22.2 nM.
With `CC(C)c1ccc([C@](O)(c2cncc(-c3nc(C4CCOCC4)n(C(C)(C)C)n3)c2)C2(C)CN(C)C2)cc1` [Example 21, (R)-{5-[1-tert-Butyl-5-(tetrahydro-pyran-4-yl)-1H-[1,2,4]triazol-3-yl]-pyridin-3-yl}-(1,3-dimethyl-azetidin-3-yl)-(4-isopropyl-phenyl)-methanol] the IC50 was 39.9 nM.
`CC(=O)N1CCC(c2nc(-c3cncc([C@@](O)(c4ccc(C(C)C)cc4)C4(C)CN(C)C4)c3)nn2C2CC2)CC1` [Example 32, 1-[4-(2-Cyclopropyl-5-{5-[(R)-(1,3-dimethyl-azetidin-3-yl)-hydroxy-(4-isopropyl-phenyl)-methyl]-pyridin-3-yl}-2H-[1,2,4]triazol-3-yl)-piperidin-1-yl]-ethanone] was tested, and the IC50 was 181 nM.
With `COC(=O)C12CCC(c3nc(-c4cncc([C@@](O)(c5ccc(C(C)C)cc5)C5(C)CN(C)C5)c4)nn3C3CC3)(CC1)CC2` [Example 10, 4-(2-Cyclopropyl-5-{5-[(R)-(1,3-dimethyl-azetidin-3-yl)-hydroxy-(4-isopropyl-phenyl)-methyl]-pyridin-3-yl}-2H-[1,2,4]triazol-3-yl)-bicyclo[2.2.2]octane-1-carboxylic acid methyl ester] the IC50 was 43.9 nM.
For `CCn1nc(-c2cncc([C@@](O)(c3ccc(C(C)C)cc3)C3(C)CN(C)C3)c2)nc1C1CCOCC1` [Example 18, (R)-(1,3-Dimethyl-azetidin-3-yl)-{5-[1-ethyl-5-(tetrahydro-pyran-4-yl)-1H-[1,2,4]triazol-3-yl]-pyridin-3-yl}-(4-isopropyl-phenyl)-methanol], the IC50 was 166 nM.
`CC(C)c1ccc([C@](O)(c2cncc(-c3nc(CC4(O)CCC4)n(C4CC4)n3)c2)C2(C)CN(C)C2)cc1` [Example 12, 1-(2-Cyclopropyl-5-{5-[(R)-(1,3-dimethyl-azetidin-3-yl)-hydroxy-(4-isopropyl-phenyl)-methyl]-pyridin-3-yl}-2H-[1,2,4]triazol-3-ylmethyl)-cyclobutanol] gave an IC50 of 114 nM.
In the case of `CC(=O)N1CCC(O)(c2nc(-c3cncc([C@@](O)(c4ccc(C(C)C)cc4)C4(C)CN(C)C4)c3)nn2C(C)C)CC1` [Example 47, 1-[4-(5-{5-[(R)-(1,3-Dimethyl-azetidin-3-yl)-hydroxy-(4-isopropyl-phenyl)-methyl]-pyridin-3-yl}-2-isopropyl-2H-[1,2,4]triazol-3-yl)-4-hydroxy-piperidin-1-yl]-ethanone], the IC50 is reported as 206 nM.
`CC(=O)N1CCC(c2nc(-c3cncc([C@@](O)(c4ccc(C(C)C)cc4)C4(C)CN(C)C4)c3)nn2C(C)C)CC1` [Example 33, 1-[4-(5-{5-[(R)-(1,3-Dimethyl-azetidin-3-yl)-hydroxy-(4-isopropyl-phenyl)-methyl]-pyridin-3-yl}-2-isopropyl-2H-[1,2,4]triazol-3-yl)-piperidin-1-yl]-ethanone] gave an IC50 of 182 nM.
For `CC(C)c1ccc([C@](O)(c2cncc(-c3nc(C4CCOCC4)n(C4CC4)n3)c2)C2(C)CN(CCO)C2)cc1` [Example 36, 2-{3-[(R)-{5-[1-Cyclopropyl-5-(tetrahydro-pyran-4-yl)-1H-[1,2,4]triazol-3-yl]-pyridin-3-yl}-hydroxy-(4-isopropyl-phenyl)-methyl]-3-methyl-azetidin-1-yl}-ethanol], the IC50 was 116 nM.
In the case of `CC(C)c1ccc([C@](O)(c2cnnc(-c3nc(C4CCOCC4)n(C(C)C)n3)c2)C2(C)CN(C)C2)cc1` [Example 51, (R)-(1,3-Dimethyl-azetidin-3-yl)-(4-isopropyl-phenyl)-{6-[1-isopropyl-5-(tetrahydro-pyran-4-yl)-1H-[1,2,4]triazol-3-yl]-pyridazin-4-yl}-methanol], the IC50 is reported as 578 nM.
`CCc1ccc([C@](O)(c2cncc(-c3nc(C4CCOCC4)n(C4CC4)n3)c2)C2(C)CN(C)C2)cc1` [Example 6, (R)-{5-[1-Cyclopropyl-5-(tetrahydro-pyran-4-yl)-1H-[1,2,4]triazol-3-yl]-pyridin-3-yl}-(1,3-dimethyl-azetidin-3-yl)-(4-ethyl-phenyl)-methanol] was tested, and the IC50 was 124 nM.
`CC(C)c1ccc([C@](O)(c2cncc(-c3nc(C4CCOCC4)n(C4CCCC4)n3)c2)C2(C)CN(C)C2)cc1` [Example 20, (R)-{5-[1-Cyclopentyl-5-(tetrahydro-pyran-4-yl)-1H-[1,2,4]triazol-3-yl]-pyridin-3-yl}-(1,3-dimethyl-azetidin-3-yl)-(4-isopropyl-phenyl)-methanol] was tested, and the IC50 was 37.3 nM.
`CC(=O)N[C@H]1CC[C@H](c2nc(-c3cncc([C@@](O)(c4ccc(C(C)C)cc4)C4(C)CN(C)C4)c3)nn2C(C)C)CC1` [Example 43, N-[4-(5-{5-[(R)-(1,3-Dimethyl-azetidin-3-yl)-hydroxy-(4-isopropyl-phenyl)-methyl]-pyridin-3-yl}-2-isopropyl-2H-[1,2,4]triazol-3-yl)-trans-cyclohexyl]-acetamide] was tested, and the IC50 was 115 nM.
With `CC(C)c1ccc([C@](O)(c2cncc(-c3nc(C4CCOCC4)n(C4CCCCC4)n3)c2)C2(C)CN(C)C2)cc1` [Example 15, (R)-{5-[1-Cyclohexyl-5-(tetrahydro-pyran-4-yl)-1H-[1,2,4]triazol-3-yl]-pyridin-3-yl}-(1,3-dimethyl-azetidin-3-yl)-(4-isopropyl-phenyl)-methanol] the IC50 was 16.8 nM.
`CC(C)c1ccc([C@](O)(c2cncc(-c3nc(C4CCOCC4)n(CCO)n3)c2)C2(C)CN(C)C2)cc1` [Example 17, 2-[3-{5-[(R)-(1,3-Dimethyl-azetidin-3-yl)-hydroxy-(4-isopropyl-phenyl)-methyl]-pyridin-3-yl}-5-(tetrahydro-pyran-4-yl)-[1,2,4]triazol-1-yl]-ethanol] gave an IC50 of 509 nM.
`CN1CC(C)([C@](O)(c2ccc(OC(F)(F)F)cc2)c2cncc(-c3nc(C4CCOCC4)n(C4CC4)n3)c2)C1` [Example 4, (R)-{5-[1-Cyclopropyl-5-(tetrahydro-pyran-4-yl)-1H-[1,2,4]triazol-3-yl]-pyridin-3-yl}-(1,3-dimethyl-azetidin-3-yl)-(4-trifluoromethoxy-phenyl)-methanol] gave an IC50 of 114 nM.
For `CC(C)c1ccc([C@](O)(c2cncc(-c3nc(C4CCNC(=O)C4)n(C(C)C)n3)c2)C2(C)CN(C)C2)cc1` (stereo partly drawn) [Example 46, 4-(5-{5-[(R)-(1,3-Dimethyl-azetidin-3-yl)-hydroxy-(4-isopropyl-phenyl)-methyl]-pyridin-3-yl}-2-isopropyl-2H-[1,2,4]triazol-3-yl)-piperidin-2-one], the IC50 was 161 nM.
`CC(C)c1ccc([C@](O)(c2cncc(-c3nc(C4CCOCC4)n(C4CCC4)n3)c2)C2(C)CN(C)C2)cc1` [Example 23, (R)-{5-[1-Cyclobutyl-5-(tetrahydro-pyran-4-yl)-1H-[1,2,4]triazol-3-yl]-pyridin-3-yl}-(1,3-dimethyl-azetidin-3-yl)-(4-isopropyl-phenyl)-methanol] showed an IC50 of 57.8 nM.
For `CC(C)c1ccc([C@](O)(c2cncc(-c3nc(C4CCOCC4)n(C(C)C)n3)c2)C2(C)CN(C)C2)cc1` [Example 19, (R)-(1,3-Dimethyl-azetidin-3-yl)-(4-isopropyl-phenyl)-{5-[1-isopropyl-5-(tetrahydro-pyran-4-yl)-1H-[1,2,4]triazol-3-yl]-pyridin-3-yl}-methanol], the IC50 was 94.8 nM.
`CC(C)c1ccc([C@](O)(c2cncc(-c3nc(C4CCN(C)C(=O)C4)n(C(C)C)n3)c2)C2(C)CN(C)C2)cc1` (stereo partly drawn) [Example 42, 4-(5-{5-[(R)-(1,3-Dimethyl-azetidin-3-yl)-hydroxy-(4-isopropyl-phenyl)-methyl]-pyridin-3-yl}-2-isopropyl-2H-[1,2,4]triazol-3-yl)-1-methyl-piperidin-2-one] was tested, and the IC50 was 200 nM.
